Data set [1] concerns human B7-1. Briefly: Cell surface expression of B7-1 in pcB7-1-transfected COS-7 cells by flow cytometry. It is filed as cell-based. As to conditions: for % B7-1 EXPRESSION: human B7 cell surface expression, Table 16; for % Surface Inhibition / % Surface Expression: COS-7 cells, B7-1 cell surface; for % Surface Expression: basal = 100%. The procedure: The ability of oligonucleotides to inhibit B7-1 expression was evaluated by measuring the cell surface expression of B7-1 in transfected COS-7 cells by flow cytometry.
A T-175 flask was seeded at 75% confluency with COS-7 cells (ATCC accession No. CRL 1651). The plasmid pcB7-1 was introduced into cells by standard calcium phosphate transfection. Following a 4 hour transfection, the cells were trypsinized and seeded in 12-well dishes at 80% confluency. The cells were allowed to adhere to the plastic for 1 hour and were then washed with phosphate-buffered saline (PBS). OptiMEM™ (GIBCO-BRL, Gaithersburg, Md.) medium was added along with 15 μg/mL of Lipofectin™ (GIBCO-BRL, Gaithersburg, Md.) and oligonucleotide at the indicated concentrations. After four additional hours, the cells were washed with phosphate buffered saline (PBS) and incubated with fresh oligonucleotide at the same concentration in DMEM (Dulbecco et al., Virol., 1959, 8, 396; Smith et al., Virol., 1960, 12, 185) with 10% fetal calf sera (FCS).
In order to monitor the effects of oligonucleotides on cell surface expression of B7-1, treated COS-7 cells were harvested by brief trypsinization 24-48 hours after oligonucleotide treatment. The cells were washed with PBS, then resuspended in 100 μL of staining buffer (PBS, 0.2% BSA, 0.1% azide) with 5 μL conjugated anti-B7-1-antibody (i.e., anti-hCD80-FITC, Ancell, Bayport, Minn.; FITC: fluorescein isothiocyanate). The cells were stained for 30 minutes at 4° C., washed with PBS, resuspended in 300 μL containing 0.5% paraformaldehyde. Cells were harvested and the fluorescence profiles were determined using a flow cytometer.
B7 antisense oligonucleotides were tested for their effect on cell surface expression of both B7-1 and B7-2. Cell surface expression was measured as described in Example 1. Experiments were done for both human B7 and mouse B7.
The oligonucleotides were screened as described in Example 2 except that the concentration of oligonucleotide was varied as shown in Table 18.
On the technique in general: Flow cytometry measures light scatter and fluorescence of single cells or particles in a stream.

Data set [2] deals with human B7-2. Description: Cell surface expression of B7-2 in transfected COS-7 cells by flow cytometry. Type of data set: cell-based. As to conditions: for % Surface Inhibition / % Surface Expression: COS-7 cells, B7-2 cell surface; for % Surface Expression: basal = 100%; for % B7-2 EXPRESSION: human B7 cell surface expression, Table 16. Summed up: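 COS-7 cells transfected with B7-2 plasmid (calcium phosphate), then treated with antisense oligonucleotides with 15 μg/mL Lipofectin for 4 h, followed by oligonucleotide in DMEM/10% FCS. After 24-48 h, cells stained with FITC- or PE-conjugated anti-CD86 for 30 min at 4 °C and analysed by flow cytometry.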

The test system of data set [3] is hB7-2 mRNA. Briefly: Ribonuclease protection assay of hB7-2 mRNA in transfected COS-7 cells. Type of data set: cell-based, human. A digest of the protocol:
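COS-7 cells transfected with hB7-2 were treated with antisense oligonucleotides at varied concentrations, mismatch controls included; RNA taken 18 h after treatment. 5 μg total RNA hybridised overnight at 42° C with 32P antisense probe (B7-2 positions 1044-1391) or beta-actin probe, RNase A/T1 digested, gel-resolved and quantified by phosphorimaging.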

Data set [4] concerns Human B7-1 mRNA. Description: Human B7-1 mRNA expression in COS-7 cells, screened as in Example 4. It is filed as cell-based.

This note sets out measurements from US7897582B2, “Oligonucleotide compositions and methods for the modulation of the expression of B7 protein” (Isis Pharmaceuticals, Inc., priority 2003, dated 2011).

Strand notation (5' to 3'): a small letter for the sugar, then the base; units joined by * are phosphorothioate-linked, units joined directly phosphodiester-linked; [ ] holds rarer units or linkages, { } end groups; capitals alone tell only the bases. e = 2'-O-(2-methoxyethyl) (MOE); [5mC] = 5-methylcytosine; d = 2'-deoxy (DNA)

In the case of “22294 (eG*eG*eT*e[5mC]*e[5mC]*dA*dA*d[5mC]*dT*dG*dT*d[5mC]*d[5mC]*dG*dA*eA*eT*e[5mC]*eA*eA; antisense) [compound 22294]”, the “% B7-1 EXPRESSION” value in data set [1] is on record as 77%. The “% Surface Inhibition” value is on record as 11% in data set [2] (dose 10 nM), 38% in data set [2] (dose 30 nM), 71% in data set [2] (dose 100 nM) and 88% in data set [2] (dose 300 nM). In addition, the “% Surface Expression” value in data set [2] (dose 10 nM) was determined as 89%; in data set [2] (dose 30 nM), 62%; in data set [2] (dose 100 nM) it was 29%; in data set [2] (dose 300 nM), 12%. In data set [2], the “% B7-2 EXPRESSION” value is on record as 28%. The “% mRNA INHIBITION” value in data set [3] (COS-7 cells, B7-2 mRNA, oligonucleotide dose 10 nM) turned out to be 7%; in data set [3] (COS-7 cells, B7-2 mRNA, oligonucleotide dose 30 nM) it was 5%; in data set [3] (COS-7 cells, B7-2 mRNA, oligonucleotide dose 100 nM), 42%; in data set [3] (COS-7 cells, B7-2 mRNA, oligonucleotide dose 300 nM), 55%. The “% mRNA EXPRESSION” value in data set [3] (COS-7 cells, B7-2 mRNA, oligonucleotide dose 10 nM, basal = 100%) turned out to be 93%; in data set [3] (COS-7 cells, B7-2 mRNA, oligonucleotide dose 30 nM, basal = 100%) it was 95%; in data set [3] (COS-7 cells, B7-2 mRNA, oligonucleotide dose 100 nM, basal = 100%) it was 58%; in data set [3] (COS-7 cells, B7-2 mRNA, oligonucleotide dose 300 nM, basal = 100%), 45%; in data set [3] (human B7-2 mRNA, Table 12), 21%.
“22316 (eG*e[5mC]*eT*e[5mC]*eA*d[5mC]*dG*dT*dA*dG*dA*dA*dG*dA*d[5mC]*e[5mC]*e[5mC]*eT*e[5mC]*e[5mC]; antisense) [compound 22316]”: the “% Surface Inhibition” value is 26% in data set [1] (dose 10 nM), 26% in data set [1] (dose 30 nM), 53% in data set [1] (dose 100 nM) and 66% in data set [1] (dose 300 nM). For the same substance, the “% Surface Expression” value in data set [1] (dose 10 nM) stood at 74%; in data set [1] (dose 30 nM) it was 74%; in data set [1] (dose 100 nM) it was 47%; in data set [1] (dose 300 nM), 34%. The “% B7-1 EXPRESSION” value in data set [1] turned out to be 31%. Moreover, the “% B7-2 EXPRESSION” value in data set [2] worked out at 100%. Moreover, the “% mRNA EXPRESSION” value in data set [4] (10 nM, COS-7, Table 8) amounted to 99%; in data set [4] (30 nM, COS-7, Table 8), 73%; in data set [4] (100 nM, COS-7, Table 8) it was 58%; in data set [4] (300 nM, COS-7, Table 8), 33%; in data set [4] (human B7-1 mRNA, Table 7), 42%. Further, the “% mRNA INHIBITION” value is 1% in data set [4] (10 nM, COS-7, Table 8); 27% in data set [4] (30 nM, COS-7, Table 8); 42% in data set [4] (100 nM, COS-7, Table 8); 67% in data set [4] (300 nM, COS-7, Table 8).
As to “22317 (eT*e[5mC]*e[5mC]*e[5mC]*eA*dG*dG*dT*dG*d[5mC]*dA*dA*dA*dA*d[5mC]*eA*eG*eG*e[5mC]*eA; antisense) [compound 22317]”, in data set [1], the “% B7-1 EXPRESSION” value is 28%. The “% B7-2 EXPRESSION” value in data set [2] came out at 91%. The “% mRNA EXPRESSION” value in data set [4] (human B7-1 mRNA, Table 7) was found to be 43%.
As to “22320 (eT*eT*eG*eA*eG*dG*dT*dA*dT*dG*dG*dA*d[5mC]*dA*d[5mC]*eT*eT*eG*eG*eA; antisense) [compound 22320]”, the “% B7-1 EXPRESSION” value in data set [1] worked out at 37%. Further, the “% B7-2 EXPRESSION” value in data set [2] is listed as 86%. In data set [4] (human B7-1 mRNA, Table 7), the “% mRNA EXPRESSION” value is reported as 45%.
Taken in the same sequence, the figures for “22324 (eG*eG*e[5mC]*e[5mC]*eA*dT*dA*dT*dA*dT*dT*d[5mC]*dA*dT*dG*eT*e[5mC]*e[5mC]*e[5mC]*e[5mC]; antisense) [compound 22324]” were 37%, 91% and 46%.
Taken in the same sequence, the figures for “22325 (eG*e[5mC]*e[5mC]*eA*eG*dG*dA*dT*d[5mC]*dA*d[5mC]*dA*dA*dT*dG*eG*eA*eG*eA*eG) [compound 22325]” were 32%, 89% and 46%.
For “22334 (antisense eA*eA*eG*e[5mC]*eA*dG*dT*dA*dG*dG*dT*d[5mC]*dA*dG*dG*e[5mC]*eA*eG*e[5mC]*eA) [compound 22334]”, in that order: 28%, 92% and 43%.
In the case of “22335 (antisense e[5mC]*e[5mC]*eT*eT*eG*d[5mC]*dT*dT*d[5mC]*dT*dG*d[5mC]*dG*dG*dA*e[5mC]*eA*e[5mC]*eT*eG) [compound 22335]”, the “% Surface Inhibition” value in data set [1] (dose 10 nM) amounted to 19%; in data set [1] (dose 30 nM) it was 31%; in data set [1] (dose 100 nM), 53%; in data set [1] (dose 300 nM), 62%. Moreover, the “% Surface Expression” value in data set [1] (dose 10 nM) was found to be 81%; in data set [1] (dose 30 nM) it was 69%; in data set [1] (dose 100 nM), 47%; in data set [1] (dose 300 nM) it was 38%. Moreover, the “% B7-1 EXPRESSION” value in data set [1] turned out to be 23%. The “% B7-2 EXPRESSION” value in data set [2] is listed as 95%. Besides, the “% mRNA EXPRESSION” value in data set [4] (10 nM, COS-7, Table 8) is given as 81%; in data set [4] (30 nM, COS-7, Table 8) it was 63%; in data set [4] (100 nM, COS-7, Table 8), 43%; in data set [4] (300 nM, COS-7, Table 8) it was 35%; in data set [4] (human B7-1 mRNA, Table 7) it was 43%. Also, the “% mRNA INHIBITION” value in data set [4] (10 nM, COS-7, Table 8) is on record as 19%; in data set [4] (30 nM, COS-7, Table 8), 37%; in data set [4] (100 nM, COS-7, Table 8), 57%; in data set [4] (300 nM, COS-7, Table 8) it was 65%.
For the substance “22337 (antisense eT*eG*eA*e[5mC]*eG*dG*dA*dG*dG*d[5mC]*dT*dA*d[5mC]*d[5mC]*dT*eT*e[5mC]*eA*eG*eA) [compound 22337]”, the “% B7-1 EXPRESSION” value in data set [1] came out at 48%. Further, in data set [2], the “% B7-2 EXPRESSION” value is 101%. Besides, the “% mRNA EXPRESSION” value in data set [4] (human B7-1 mRNA, Table 7) is listed as 42%.
As to “22338 (antisense eG*e[5mC]*e[5mC]*eT*e[5mC]*dA*dT*dG*dA*dT*d[5mC]*d[5mC]*d[5mC]*d[5mC]*dA*e[5mC]*eG*eA*eT*e[5mC]) [compound 22338]”, the “% Surface Inhibition” value is reported as 22% in data set [1] (dose 10 nM), 35% in data set [1] (dose 30 nM), 50% in data set [1] (dose 100 nM) and 60% in data set [1] (dose 300 nM). Also, the “% Surface Expression” value in data set [1] (dose 10 nM) was determined as 78%; in data set [1] (dose 30 nM), 65%; in data set [1] (dose 100 nM) it was 50%; in data set [1] (dose 300 nM), 40%. In addition, the “% B7-1 EXPRESSION” value in data set [1] was 22%. In addition, in data set [2], the “% B7-2 EXPRESSION” value is 96%. The “% mRNA EXPRESSION” value in data set [4] (10 nM, COS-7, Table 8) was determined as 68%; in data set [4] (30 nM, COS-7, Table 8) it was 60%; in data set [4] (100 nM, COS-7, Table 8) it was 53%; in data set [4] (300 nM, COS-7, Table 8) it was 41%; in data set [4] (human B7-1 mRNA, Table 7), 40%. Further, the “% mRNA INHIBITION” value was found to be 32% in data set [4] (10 nM, COS-7, Table 8); 40% in data set [4] (30 nM, COS-7, Table 8); 47% in data set [4] (100 nM, COS-7, Table 8); 59% in data set [4] (300 nM, COS-7, Table 8).
